This is an account of results in US10981932B2, “Macrocyclic indole derivatives” (Bayer Aktiengesellschaft, priority 2016, dated 2021).

One assay concerns SUDHL10. Description: Induction of caspase-3/7 activity (Caspase-Glo 3/7), SUDHL10. The settings on record: caspase-3/7 induction, SUDHL10 cells, 3 h treatment, median. It is filed as cell-based. The method in brief: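 Caspase-Glo 3/7 luminescence measured after 3 h compound exposure at 37 °C in SUDHL10 and SUDHL5 cells. EC50 values come from background-corrected signals, with curve bottom set to 1 and plateau set to maximal induction by the reference compound.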

Another assay addresses T1, BCL-2 (Homo sapiens, UniProt P10415).
T1 construct: BCL-2 (amino acids 1-211, C-terminal fused to a hexahistidine (6×His) tag); purchased BPS Bioscience (San Diego, Calif., USA); host or cells: E. coli
The assay is described as follows: Protein-protein interaction assay BCL-2/Bad BH3 peptide (BCL-2 assay), TR-FRET. The class given is binding. The conditions noted are these: His-BCL-2 / Bad BH3-derived peptide, median. Here is the method:
Protein-Protein Interaction Assay: BCL-2/Bad BH3 Peptide (BCL-2 Assay)
The dose-dependent inhibition by the compounds described in this invention of the interaction between BCL-2 and the BH3 domain of Bad (both human) was determined using a steady state binding competition assay with time-resolved fluorescence energy transfer (TR-FRET) readout. For that purpose BCL-2 (amino acids 1-211, C-terminal fused to a hexahistidine (6×His) tag and a synthetic Bad BH3-derived peptide of sequence Biotin-PEG2-PEG2-NLWAAQRYGRELRR-Nle-SDEFVDSFKK-amide (SEQ ID NO: 2) served as protein receptor and tracer ligand respectively. The recombinant BCL-2 protein (expressed in E. coli) was purchased from BPS Bioscience (San Diego, Calif., USA). The Bad BH3-derived peptide can be obtained from e.g. Biosyntan (Berlin, Germany).
In the assay 11 different concentrations of each compound (0.1 nM, 0.33 nM, 1.1 nM, 3.8 nM. 13 nM, 44 nM, 0.15 μM, 0.51 μM, 1.7 μM, 5.9 μM and 20 μM) were typically measured as duplicates in the same microtiter plate. For that, 100-fold concentrated DMSO solutions were prepared by serial dilutions (1:3.4) of a 2 mM stock solution in a clear, 384-well microtiter plate (Greiner Bio-One, Frickenhausen, Germany). From there, 50 nl were transferred in a dark test plate (Greiner Bio-One. Frickenhausen, Germany). The assay was initiated by addition of 2 μl of a 2,5-fold concentrated His-BCL-2 solution (usually for a 1 nM end concentration in 5 μl reaction volume) in aqueous assay buffer [50 mM Tris/HCl pH 7, 100 mM sodium chloride (NaCl), 50 mM potassium fluoride (KF), 0.005% Tween-20, 2 mM DTT, 0.1% bovine gamma globulin (BGG)] to the compounds in the assay plate. This was followed by a 10-minute incubation step at 22° C. for pre-equilibration of the putative complex between His-BCL-2 and the compounds.
The mixture was incubated in the dark for one hour at 22° C. and then overnight at 4° C. The formation of BCL-2/Bad complexes was determined by measuring the resonance energy transfer of the anti-His-Eu-cryptate antibody to the streptavidin-XL665 present in the reaction. For that purpose, the fluorescence emission at 620 nm and 665 nm after excitation at 330-350 nm was measured in a TR-FRET measuring instrument, for instance a Rubystar or a Pherastar (both from BMG Lab Technologies. Offenburg, Germany) or a Viewlux (Perkin-Elmer). The ratio of the emission at 665 nm and at 622 nm was used as indicator of the amount of BCL-2/Bad complexes present.
The resulting data (ratio) were normalized, taking 0% inhibition as the mean value of control measurements (usually 32 data points) where all reagents were included. In this case 50 nl DMSO were used instead of compounds. A 100% inhibition corresponded to the mean value of control measurements (usually 32 data points) where all reagents except BCL-2 were included. IC50 values were determined by regression analysis based on a 4 parameter equation (minimum, maximum, IC50, Hill; Y=Max+(Min−Max)/(1+(X/IC50)^Hill) using the Screener Software (Genedata).
On the technique in general: Time-resolved FRET reads energy transfer from a long-lived donor to a nearby acceptor.

In a further assay the target is MCL-1 (Homo sapiens, UniProt Q07820). The assay is described as follows: Protein-protein interaction assay MCL-1/Noxa BH3 peptide (MCL-1 assay), TR-FRET. The settings on record: MBP-MCL-1 / Noxa BH3-derived peptide, median. It is filed as binding. The method in brief:
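MBP-MCL-1 (1 nM final) was preincubated 10 min at 22 °C with compounds (11 concentrations, 0.1 nM–20 μM, duplicates) in Tris pH 7 buffer with NaCl, KF, Tween-20, DTT and BGG. After 1 h at 22 °C in the dark plus overnight at 4 °C, anti-MBP Eu-cryptate/streptavidin-XL665 TR-FRET was read; IC50 came from a 4-parameter fit.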

Molecules are shown by their SMILES. Structures can show the parent of a compound that is named as a salt. A value given as a limit tells only on which side of the number the result lay.

Chain of MCL-1 (Q07820 whole entry): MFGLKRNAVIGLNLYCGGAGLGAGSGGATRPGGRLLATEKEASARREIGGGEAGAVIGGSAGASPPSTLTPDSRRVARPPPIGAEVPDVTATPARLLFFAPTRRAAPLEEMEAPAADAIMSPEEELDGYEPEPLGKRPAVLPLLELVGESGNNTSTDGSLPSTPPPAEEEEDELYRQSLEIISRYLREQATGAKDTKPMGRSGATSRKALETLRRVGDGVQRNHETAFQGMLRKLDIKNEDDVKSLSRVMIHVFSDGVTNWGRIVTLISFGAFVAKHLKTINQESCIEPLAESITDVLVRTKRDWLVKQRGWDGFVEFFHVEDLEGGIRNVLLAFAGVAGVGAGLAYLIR
T1 sequence (P10415 1-211): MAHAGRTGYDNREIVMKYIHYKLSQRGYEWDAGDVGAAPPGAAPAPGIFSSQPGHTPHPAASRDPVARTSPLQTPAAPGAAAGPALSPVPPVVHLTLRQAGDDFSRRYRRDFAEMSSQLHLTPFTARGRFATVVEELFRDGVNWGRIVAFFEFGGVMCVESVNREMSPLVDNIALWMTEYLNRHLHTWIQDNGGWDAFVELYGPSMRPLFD

Regarding `CN1CCCn2c(C(=O)O)c(CCCOc3cccc4ccccc34)c3cccc(c32)-c2c(COc3ccc(N4CCN(S(=O)(=O)N(C)C)CC4)cc3)nn(C)c2C1` (single isomer, unassigned; enantiomer 1) [Example 1-15, (+)-11-({4-[4-(dimethylsulfamoyl)piperazin-1-yl]phenoxy}methyl)-7,9-dimethyl-1-[3-(naphthalen-1-yloxy)propyl]-4,5,6,7,8,9-hexahydropyrazolo[3′,4′:7,8][1,5]diazecino[9,10,1-hi]indole-2-carboxylic Acid (Enantiomer 1)], the EC50 (in general, the concentration needed to bring the measured effect to its halfway point) in the assay on SUDHL10 came to 1.82 µM. The IC50 (commonly the midpoint of a concentration-inhibition curve) on BCL-2 was above 20 µM; against MCL-1, 0.00303 µM.
For `Cn1nc(COc2ccc(N3CCN(C(=O)C4CC4)CC3)cc2)c2c1COCCCCn1c(C(=O)O)c(CCCOc3cccc4ccccc34)c3cccc-2c31` (single isomer, unassigned; enantiomer 1) [Example 1-22, 3-({4-[4-(cyclopropylcarbonyl)piperazin-1-yl]phenoxy}methyl)-1-methyl-7-[3-(naphthalen-1-yloxy)propyl]-1,10,11,12,13,15-hexahydropyrazolo[4′,3′:9,10][1,6]oxazacycloundecino[8,7,6-hi]indole-8-carboxylic Acid (Enantiomer 1)] the same measures were 2.21 µM, above 20 µM and 0.000787 µM.
For `Cc1nn(C)c2c1-c1cccc3c(CCCOc4cccc5ccccc45)c(C(=O)O)n(c13)CCCN(C)C2` (single isomer, unassigned; enantiomer 1) [Example 1-31, 7,9,11-trimethyl-1-[3-(naphthalen-1-yloxy)propyl]-4,5,6,7,8,9-hexahydropyrazolo[3′,4′:7,8][1,5]diazecino[9,10,1-hi]indole-2-carboxylic Acid-N-ethylethanamine Salt (Enantiomer 1)] the same measures were 7.27 µM, above 20 µM and 0.00462 µM.
Turning to `Cc1c2c(nn1C)COCCCCn1c(C(=O)O)c(CCCOc3cccc4ccccc34)c3cccc-2c31` (single isomer, unassigned; enantiomer 1) [Example 1-37, (+)-2,3-dimethyl-7-[3-(naphthalen-1-yloxy)propyl]-2,10,11,12,13,15-hexahydropyrazolo[4′,3′:9,10][1,6]oxazacycloundecino[8,7,6-hi]indole-8-carboxylic Acid (Enantiomer 1)], the midpoint of the response in the assay on SUDHL10, the EC50, lay at 3.84 µM. Further, the figures for the IC50 against BCL-2 and at MCL-1 were above 20 µM and 0.00172 µM, respectively.
`CN1CCCn2c(C(=O)O)c(CCCOc3cccc4ccccc34)c3cccc(c32)-c2c(CN3CCOCC3)nn(C)c2C1` (single isomer, unassigned; enantiomer 1) [Example 1-43, (+)-7,9-dimethyl-11-(morpholin-4-ylmethyl)-1-[3-(naphthalen-1-yloxy)propyl]-4,5,6,7,8,9-hexahydropyrazolo[3′,4′:7,8][1,5]diazecino[9,10,1-hi]indole-2-carboxylic Acid (Enantiomer 1)] returned an EC50 in the assay on SUDHL10 (Homo sapiens, SU-DHL10, 3 h) of 11.1 µM. The IC50 on BCL-2 is above 20 µM; against MCL-1 it was 0.00799 µM.
In the case of `CN1CCCn2c(C(=O)O)c(CCCOc3cccc4ccccc34)c3cccc(c32)-c2c(COc3ccc(N4CCN(S(C)(=O)=O)CC4)cc3)nn(C)c2C1` (single isomer, unassigned; enantiomer 1) [Example 1-46, (+)-7,9-dimethyl-11-({4-[4-(methylsulfonyl)piperazin-1-yl]phenoxy}methyl)-1-[3-(naphthalen-1-yloxy)propyl]-4,5,6,7,8,9-hexahydropyrazolo[3′,4′:7,8][1,5]diazecino[9,10,1-hi]indole-2-carboxylic Acid (Enantiomer 1)], it took 1.74 µM to reach a half-maximal effect in the assay with SUDHL10 (EC50). Besides, the values for the IC50 against BCL-2 and against MCL-1 were 2.34 µM and 0.00143 µM, respectively.
In the assay on SUDHL10, `Cc1nn(C)c2c1-c1cccc3c(CCCOc4cccc5cc(F)ccc45)c(C(=O)O)n(c13)CCCCOC2` (single isomer, unassigned; enantiomer 1) [Example 019, 7-{3-[(6-fluoronaphthalen-1-yl)oxy]propyl}-1,3-dimethyl-1,10,11,12,13,15-hexahydropyrazolo[4′,3′:9,10][1,6]oxazacycloundecino[8,7,6-hi]indole-8-carboxylic Acid-N-ethylethanamine Salt (Enantiomer 1)] returned an EC50 of 5.16 µM. The IC50 against BCL-2 was above 20 µM; against MCL-1, 0.000862 µM.
In the assay with SUDHL10 (Homo sapiens, SU-DHL10, 3 h), `Cc1nn(C)c2c1-c1cccc3c(CCCOc4cccc5cc(Cl)ccc45)c(C(=O)O)n(c13)CCCCOC2` (single isomer, unassigned; enantiomer 1) [Example 041, 7-{3-[(6-chloronaphthalen-1-yl)oxy]propyl}-1,3-dimethyl-1,10,11,12,13,15-hexahydropyrazolo[4′,3′:9,10][1,6]oxazacycloundecino[8,7,6-hi]indole-8-carboxylic acid-N-ethylethanamine Salt (Enantiomer 1)] gave an EC50 of 18.2 µM. Besides, the figures for the IC50 at BCL-2 and on MCL-1 were above 20 µM and 0.00444 µM, respectively.
In the case of `Cc1nn(C)c2c1-c1cccc3c(CCCOc4cccc5cc(F)ccc45)c(C(=O)O)n(c13)CCCOC2` (single isomer, unassigned; enantiomer 1) [Example 047, 1-{3-[(6-fluoronaphthalen-1-yl)oxy]propyl}-9,11-dimethyl-5,6,8,9-tetrahydro-4H-pyrazolo[4′,3′:8,9][1,5]oxazecino[7,6,5-hi]indole-2-carboxylic acid-N-ethylethanamine Salt (Enantiomer 1)], the EC50 at SUDHL10 is 6.66 µM. Moreover, the IC50 was above 20 µM at BCL-2 and 0.00286 µM on MCL-1.
`COCCn1nc2c(c1CN1CCOCC1)-c1cccc3c(CCCOc4cccc5ccccc45)c(C(=O)O)n(c13)CCCN(C)C2` (single isomer, unassigned; enantiomer 1) [Example 057, 10-(2-methoxyethyl)-7-methyl-11-(morpholin-4-ylmethyl)-1-[3-(naphthalen-1-yloxy)propyl]-4,5,6,7,8,10-hexahydropyrazolo[3′,4′:7,8][1,5]diazecino[9,10,1-hi]indole-2-carboxylic Acid (Enantiomer 1)]: in the assay on SUDHL10 (Homo sapiens, SU-DHL10, 3 h), the EC50 turned out to be 24.7 µM. In addition, the values for the IC50 against BCL-2 and against MCL-1 were above 20 µM and 0.0453 µM, respectively.
`Cc1c2c(nn1CCN1CCOCC1)CN(C)CCCn1c(C(=O)O)c(CCCOc3cccc4ccccc34)c3cccc-2c31` (single isomer, unassigned; enantiomer 1) [Example 060, 7,11-dimethyl-10-[2-(morpholin-4-yl)ethyl]-1-[3-(naphthalen-1-yloxy)propyl]-4,5,6,7,8,10-hexahydropyrazolo[3′,4′:7,8][1,5]diazecino[9,10,1-hi]indole-2-carboxylic Acid (Enantiomer 1)]: a half-maximal response in the assay with SUDHL10 (EC50) required 8.54 µM. For the same compound, the IC50 on BCL-2 was above 20 µM; at MCL-1 it was 0.00544 µM.
